In publication PMC6945522, “Promoting tau secretion and propagation by hyperactive p300/CBP via autophagy-lysosomal pathway in tauopathy” (Molecular Neurodegeneration, 2020):

Target: T1, p300 (Homo sapiens, UniProt Q09472)
T1 construct: gene EP300; fragment of p300 (aa 1815–1910), including the PHD, catalytic (HAT), ZZ and TAZ2 domains
T1 sequence (Q09472 1815-1910): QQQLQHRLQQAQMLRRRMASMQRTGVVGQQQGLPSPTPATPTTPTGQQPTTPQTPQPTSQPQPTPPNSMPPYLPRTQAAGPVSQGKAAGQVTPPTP
Test: HTRF tau acetylation assay with purified p300 core domain; confirmed by orthogonal MMBC assay and DSF binding
Assay type: biochemical

- IC50: 35.3 µM
SMILES: Cc1cc2c(c(=S)[nH]1)C(=O)O/C2=C\c1ccco1 [compound 37892, SMDC37892]
